# Laboratory results published in publication PMC11895359 (Alzheimer's Research & Therapy, 2025).
# Several values for one entry are separate records, joined by “and”; a condition that tells them apart may be missing. Identical values can stand only once. Like-named read-outs stand apart in the source and are kept apart here.
# Experiments:
# [1] = cited from earlier work
# [2] = design: method as in Galla et al. 16; conditions: ref Galla et al. 16, cited from earlier work
# [3] = LC/MS measurement of CSF nicotinamide and metabolites in NEAT trial participants; conditions: for Kp at 12 months / concentration at 12 months: 1500 mg; for Kp at 12 months: CSF methyl-nicotinamide as percent of plasma methyl-nicotinamide
# Method: CSF samples were collected at 0 and 12 months.
# The injection volume was 10 μL in triplicate.
# (§1) We also measured the within-participant association between analytes. […] All bar graphs show mean and standard errors.
# [4] = LC/MS measurement of plasma nicotinamide and metabolites in NEAT trial participants; conditions: for concentration at 0 months: Plasma analyte concentration, this work baseline; for Plasma measure: obtained simultaneously with nicotinamide by LC/MS
# Excerpt: (§2) The NEAT trial participants were recruited at UCLA and UC Irvine and were required to meet eligibility criteria that included clinical criteria for mild cognitive impairment or mild dementia due to AD, confirmed by a CSF biomarker (CSF amyloid beta 42 (Aβ42) ≤ 200 pg/mL or a ratio of total tau to Aβ42 ≥ 0.39) [9]. […] Blood was collected from all participants at 0, 6, and 12 months after overnight fasting and plasma rapidly obtained. CSF samples were collected at 0 and 12 months. Plasma and CSF samples were stored at −80 °C until further processing. All samples were included in analysis, with an interval from last dose of drug or placebo ranging from 6 to 432 h.
# (§3) Each calibration dilution contained IS at a constant concentration of 1 μM. IS was also added to each patient sample to a final concentration of 0.5 μM. All solutions and QC samples were stored at −20 °C. The lower limit of quantification for each analyte was determined by finding the lowest calibration curve concentration that could both be distinguished with 95% confidence from blank readings and have a signal-to-noise ratio greater than 8 to 1 [10].
# (§4) Protein was precipitated by adding 160 μL of −20 °C 99.7% acetonitrile-0.3% formic acid to the IS-sample mix. Samples were centrifuged for 20 min at 4 °C at 17,000 g. 40 μL of the supernatant was then diluted fivefold with 200 μL of 0.3% formic acid in an autosampler well plate (Waters186002643). All plasma and CSF analytes were determined simultaneously for groups of 4–20 participants from the 46 participants without knowledge of their treatment assignment.
# (§5) Samples were analyzed on a Waters Acquity UPLC Quattro Premier mass spectrometer in triple quadrupole electrospray positive (ESI +) mode with an Acquity CSH™ Fluoro-Phenyl (2.1 × 50 mm, 1.7 μm) column. For liquid chromatography separation, we modified the method of Chu et al. (2021). We used 0.3% formic acid in water as the mobile A phase, and 99.7% acetonitrile/0.3% formic acid as the mobile B phase. The injection volume was 10 μL in triplicate. The sample elution gradient was programmed as 0 – 0.5 min. in 100% A; 0.5–2.5 min, linear to 95% B; re-equilibrated from 2.5–4.5 min. in 100% A. The flow rate was 0.3 mL/min, and column temperature was 50 °C.
# (§6) Microsoft Excel (Version 16.82, Microsoft, Redmond, WA, USA) was used for data management and statistical analysis. Treatment allocation was unblinded after all sample analyte levels were completed by mass spectrometry. We compared the randomized placebo and treatment groups for main analyte effects by two-tailed unpaired Student’s T Tests, with significance at p < 0.05, without adjustment for multiple comparisons in this exploratory analysis. […] We also measured the within-participant association between analytes. […] All bar graphs show mean and standard errors.
# Sirt1 = conditions: cited from earlier work
# total tau/ Aβ42 = experiment: Change in CSF total tau/Aβ42 ratio in NEAT trial participants; type: in vivo, human; conditions: mean ± S.E.
# Excerpt: as §1
# Aβ42 = experiment: Change in CSF Aβ42 in NEAT trial participants; type: in vivo, human; conditions: mean ± S.E.
# Excerpt: as §1
# Aβ42/40 = experiment: Change in CSF Aβ42/40 ratio in NEAT trial participants; type: in vivo, human; conditions: mean ± S.E.
# Excerpt: as §1
# Aβ40 = experiment: Change in CSF Aβ40 in NEAT trial participants; type: in vivo, human; conditions: mean ± S.E.
# Excerpt: as §1
# [5] = system: mouse models of Alzheimer’s disease; conditions: mouse models of AD; cited from earlier work
# pTau181 = experiment: Change in CSF pTau181 in NEAT trial participants; type: in vivo, human; conditions: CSF nicotinamide elevated, n = 6, 12 months, mean ± S.E.
# Excerpt: as §1
# total tau = experiment: Change in CSF total tau in NEAT trial participants; type: in vivo, human; conditions: mean ± S.E.
# Excerpt: as §1
# CSF pTau231 = experiment: Change in CSF pTau231 in NEAT trial participants; type: in vivo, human; design: PTAU231 Month 12, individual participant / PTAU231 change, individual participant: unit not given here
# Excerpt: as §1
# [6] = phase 2a trial, high-dose oral nicotinamide, early AD; cited from earlier work
# [7] = in vivo
# Excerpt: as §2, §3, §4, §5, §6
# [8] = target: nicotinamide N-methyl transferase; conditions: competes with nicotinamide; cited from earlier work
# [9] = system: nicotinamide N-methyl transferase; conditions: cited from earlier work
# muscle regeneration = conditions: aged mouse models; cited from earlier work
# [10] = n = 10, ± S.D., ref Clement et al. 14
# [11] = n = 100, ± S.D., ref Seyedsadjadi et al. 15
# [12] = n = 659, ± S.D., ref Chu et al. 12
# [13] = TX 1500mg, values below limit of quantification set to 0.1 uM, listed as 1-Methynicotinamide
# [14] = obtained simultaneously with nicotinamide by LC/MS
# [15] = CSF nicotinamide elevated, n = 6, 12 months
smiles,measurement,setting,value
"C[n+]1cccc(C(N)=O)c1 [methyl-nicotinamide, 1-methyl-nicotinamide]",Plasma analyte concentration,[1]; [10],0.05 ± 0.01 µM
same,Plasma analyte concentration,"[1]; n = 10, ± S.D., ref Galla et al. 16",0.185 ± 0.116 µM
same,Plasma analyte concentration,[1]; [11],0.033 ± 0.012 µM
same,Plasma analyte concentration,[1]; [12],0.1 ± 0.002 µM
same,CSF analyte concentration,"[2]; n = 10, ± S.D.",0.039 ± 0.025 µM
same,CSF methyl-nicotinamide,[2]; participants without AD,around 39 nM
same,Percent of treated participants with CSF methyl-nicotinamide seen,"[3]; 12 months, n = 9 of 19",47%
same,Ratio of elevated plasma methyl-nicotinamide to CSF methyl-nicotinamide,"[3]; 125/3.4, 12 months",37
same,"CSF 1-Methynicotinamide, Month 12, individual participant",[3]; [13],0.1 µM and 5.9 µM and 6.5 µM and 4.1 µM and 5.6 µM and 5.7 µM and 1.4 µM and 1.3 µM and 6.4 µM and 7.5 µM and 9.2 µM and 3.6 µM
same,CSF methyl-nicotinamide as percent of CSF nicotinamide,"[3]; drug elevated subgroup, 3.4/57",6%
same,Kp at 12 months,"[3]; human, in vivo, drug elevated subgroup, 3.4 vs 125 μM",0.03
same,Kp at 12 months,"[3]; human, in vivo, drug unelevated subgroup, 2.4 vs plasma 37 μM",0.06
same,concentration at 12 months,"[3]; human, in vivo, CSF methyl-nicotinamide range in participants with elevated level, nicotinamide treated, 12 months",3 to 10 µM
same,concentration at 12 months,"[3]; human, in vivo, Mean CSF methyl-nicotinamide, CSF nicotinamide elevated subgroup, treated, 6 of 19 participants, 12 months",3.4 µM
same,concentration at 12 months,"[3]; human, in vivo, Mean CSF methyl-nicotinamide, CSF nicotinamide unelevated subgroup, treated, 12 months",2.4 µM
same,concentration at 12 months,"[3]; human, in vivo, Mean CSF methyl-nicotinamide, all nicotinamide-treated participants, 12 months",3.1 µM
same,concentration at 0 months,"[3]; human, in vivo, CSF analyte concentration, this work baseline, baseline before treatment, n = 47",≤ 0.1 µM
same,Fold increase of mean CSF methyl-nicotinamide,"[3]; treated, 12 months, vs 0.1 μM limit of quantification",at least 31 fold
same,Fold increase of plasma methyl-nicotinamide above baseline in 6 of 7 nicotinamide unelevated participants,[4]; 12 months,at least 127 fold
same,"Plasma methyl-nicotinamide relative to mean plasma nicotinamide, drug elevated subgroup","[4]; 12 months, 125/86",1.5 fold
same,"Fold increase of plasma methyl-nicotinamide above baseline and placebo, drug elevated subgroup","[4]; 12 months, 125/<0.1",≥ 1250 fold
same,"Plasma 1-Methynicotinamide, Month 6, individual participant",[4]; [13],72.2 µM and 6.7 µM and 98.7 µM and 8.5 µM and 73.1 µM and 120.1 µM and 30.7 µM and 77.4 µM and 114.1 µM and 160.6 µM and 61.9 µM and 130.4 µM and 151.9 µM and 186.7 µM and 248.2 µM and 186.6 µM and 191.6 µM and 68.1 µM and 186.9 µM
same,"Plasma 1-Methynicotinamide, Month 12, individual participant",[4]; [13],101.4 µM and 6.8 µM and 0.5 µM and 93.1 µM and 19.8 µM and 119.3 µM and 87.2 µM and 118.8 µM and 0.1 µM and 127.8 µM and 33.8 µM and 71.4 µM and 101.3 µM and 15.3 µM and 73.9 µM and 116.0 µM and 293.9 µM and 219.6 µM and 242.1 µM and 152.9 µM and 1.2 µM and 76.9 µM and 15.0 µM
same,"Plasma analyte concentration, this work baseline","[4]; baseline before treatment, n = 47, ± S.D.",0.14 ± 0.03 µM
same,concentration at 12 months,"[4]; human, in vivo, 1500 mg BID, Mean plasma methyl-nicotinamide in 6 of 7 treated participants without measurable plasma nicotinamide, 12 months",12.7 µM
same,concentration at 12 months,"[4]; human, in vivo, 1500 mg, Mean plasma methyl-nicotinamide, plasma nicotinamide elevated subgroup, treated, 12 months",125 µM
same,concentration at 12 months,"[4]; human, in vivo, 1500 mg, Mean plasma methyl-nicotinamide, plasma nicotinamide unelevated subgroup, treated, 9 participants, 12 months",37 µM
same,concentration at 12 months,"[4]; human, in vivo, 1500 mg, Plasma methyl-nicotinamide range in participants with elevated level, nicotinamide treated, 12 months",6 to 294 µM
same,concentration at 0 months,"[4]; human, in vivo, baseline before treatment, n = 47, ± S.D.",0.14 µM
same,concentration at 6 months,"[4]; human, in vivo, po, 1500 mg, Mean plasma methyl-nicotinamide, nicotinamide-treated participants, 1500 mg PO BID",114 µM
same,concentration at 12 months,"[4]; human, in vivo, po, 1500 mg, Mean plasma methyl-nicotinamide, nicotinamide-treated participants, 1500 mg PO BID, 12 months",91 µM
same,Fold increase of mean plasma methyl-nicotinamide,"[4]; treated, 6 and 12 months",> 600 fold
same,Sirt1 binding and stabilization,Sirt1,binds to and stabilizes Sirt1
O=C(O)c1cccnc1 [nicotinic acid],CSF measure,[3]; [14],below our limits of detection
same,Plasma measure,[4],below our limits of detection
NC(=O)c1cccnc1 [Nicotinamide],Change in total tau/ Aβ42,total tau/ Aβ42; [15],35 ± 15%
same,Change in total tau/ Aβ42,"total tau/ Aβ42; all treated, n = 19, 12 months",41 ± 7%
same,Change in Aβ42,Aβ42; [15],-75 ± 44 pg/mL
same,Change in Aβ42,"Aβ42; all treated, n = 19, 12 months",-127 ± 38 pg/mL
same,Change in Aβ42/40,Aβ42/40; [15],−2.1 ± 4%
same,Change in Aβ42/40,"Aβ42/40; all treated, n = 19, 12 months",−3.7 ± 1.7%
same,Change in Aβ40,Aβ40; [15],-1823 ± 1094 pg/mL
same,Change in Aβ40,"Aβ40; all treated, n = 19, 12 months",-2307 ± 593 pg/mL
same,Cognitive function,[5],improved cognitive function
same,Change in pTau181,pTau181,1.1 ± 14 pg/mL
same,Plasma analyte concentration,[1]; [10],38 ± 11 µM
same,Plasma analyte concentration,"[1]; n = 54, ± S.D., ref Ibrahim et al. 13",1.2 ± 0.14 µM
same,Plasma analyte concentration,[1]; [11],32 ± 11 µM
same,Plasma analyte concentration,[1]; [12],0.9 ± 0.02 µM
same,Change in total tau,total tau; [15],-35 ± 84 pg/mL
same,Change in total tau,"total tau; all treated, n = 19, 12 months",-8.6 ± 54 pg/mL
same,"PTAU231 Month 12, individual participant",CSF pTau231; TX 1500mg,34.3 and 98.8 and 66 and 31.3 and 12.2 and 14.6 and 15.1 and 68.8 and 21.2 and 10.9 and 29 and 49.5 and 6.6 and 52.5 and 20.1 and 65.3 and 41 and 6.2 and 37
same,"PTAU231 change, individual participant","CSF pTau231; TX 1500mg, Month 12 minus baseline",-12 and 24 and -20 and -24.5 and -2.9 and -10.4 and -17.7 and 29.5 and -11.6 and 3.1 and 7.6 and 1.5 and -0.3 and -15 and -25.2 and -8.5 and -1.5 and -5.3
same,"PTAU231 % change, individual participant","CSF pTau231; TX 1500mg, Month 12 vs baseline",-26% and 32% and -23% and -44% and -19% and -42% and -54% and 75% and -35% and 40% and 36% and 3% and -4% and -22% and -1% and -28% and -17% and -13%
same,Percent Change in pTau231,"CSF pTau231; all treated participants, 12 months",-9%
same,Decrease of pTau231 from baseline,"CSF pTau231; six treated participants with elevated CSF nicotinamide, 12 months",34%
same,Percent Change in pTau231,"CSF pTau231; treated, CSF nicotinamide elevated (six participants), 12 months",-34%
same,Increase of pTau231 from baseline,"CSF pTau231; treated, CSF nicotinamide unelevated group, 12 months",3%
same,Percent Change in pTau231,"CSF pTau231; treated, CSF nicotinamide unelevated, 12 months",3%
same,Percent Change in pTau231,"CSF pTau231; treated, plasma nicotinamide elevated, 12 months",-4%
same,Percent Change in pTau231,"CSF pTau231; treated, plasma nicotinamide unelevated, 12 months",-15%
same,Percent of treated participants with elevated plasma nicotinamide,"[4]; 12 months, n = 14 of 23",61%
same,concentration at 12 months,"[4]; human, plasma, oral, 1500 mg, Mean plasma nicotinamide, drug elevated subgroup, treated, plasma nicotinamide > […], 12 months",86 µM
same,concentration at 12 months,"[4]; human, plasma, oral, 1500 mg, Mean plasma nicotinamide, drug unelevated subgroup, treated, plasma nicotinamide ≤ […], 12 months",0.7 µM
same,concentration at 27 h,"[4]; human, plasma, oral, 1500 mg, Plasma nicotinamide, one participant, treated, sample 27 h after last dose",2 µM
same,concentration at 6 months,"[4]; human, plasma, po, 1500 mg, Mean plasma nicotinamide, nicotinamide-treated participants, 1500 mg PO BID",73 µM
same,concentration at 12 months,"[4]; human, plasma, po, 1500 mg, Mean plasma nicotinamide, nicotinamide-treated participants, 1500 mg PO BID, 12 months",52 µM
same,Safety and tolerability,[6],good safety and tolerability
NC(=O)c1ccc[n+]([C@@H]2O[C@H](COP(=O)([O-])O)[C@@H](O)[C@H]2O)c1 [nicotinamide mononucleotide],Plasma measure,[7],below our limits of detection
same,CSF measure,[3]; in vivo,below our limits of detection
"COc1ccc(C(N)=O)cn1 [JBSNF-000088, 6-methyloxy-nicotinamide]",IC50,[8],1.8 µM
same,Reduction of methyl-nicotinamide in mouse plasma,[9],50%
same,Effect on body weight,[9]; mouse,reduced body weight
C[n+]1cccc2c(N)cccc21 [5-amino-1-methylquinoline],Muscle regeneration,muscle regeneration,improve muscle regeneration
"NC(=O)c1ccc[n+]([C@@H]2O[C@H](COP(=O)([O-])OP(=O)(O)OC[C@H]3O[C@@H](n4cnc5c(N)ncnc54)[C@H](O)[C@@H]3O)[C@@H](O)[C@H]2O)c1 [NAD^+, Nicotinamide Adenine Dinucleotide]",Plasma analyte concentration,[1]; [10],0.008 ± 0.02 µM
same,Plasma analyte concentration,[1]; [11],0.023 ± 0.012 µM
same,CSF measure,[3]; [14],below our limits of detection
same,concentration at 0 months,"[4]; human, plasma, baseline before treatment, n = 47, ± S.D.",< 1.2 µM
same,Plasma measure,[4],below our limits of detection
same,Plasma NAD+ (not measurable above),[4]; this work,< 1.2 nM
